# Measurements taken from US20060247187A1, “Attenuation of disorders by aminoglycosides” (priority 2005, published 2006).
# Key:
# [1] = prospective studies, gentamicin for over 7 days; cited from earlier work
# [2] = tested on: Male Sprague-Dawley rats; assay: Morphological examination of the kidney (PAS, propidium iodide apoptosis, GPX-3 in situ hybridization); format: in vivo, rat
# Procedure: Paraffin embedded sections were stained with periodic acid-Schiff (PAS) and examined by light microscopy to determine the extent of gentamicin toxicity (Kopple et al., 2002). In addition, tubular apoptosis was assessed by staining for DNA fragmentation using propidium iodide. Briefly, sections (3 μm) from the same paraffin blocks used for PAS staining were de-paraffinised with xylene and rehydrated, soaked with PBS pH 7.4 and incubated for 10 minutes with propidium iodide 10 μg/ml and RNAse A 100 μg/ml at 37° C. Sections were subsequently washed extensively with PBS, rinsed with distilled water and mounted with an aqueous media (AFT, Behring Diagnostics, Somerville, N.J.). On a fluorescence microscope, renal tissue was identified on bright field and then, using a rhodamine filter set, the normal and apoptotic tubular nuclei were counted. Twenty cortical windows were assessed in each animal. The results were expressed as a mean number of fragmented and condensed nuclei (apoptotic cells) per window. As a marker of proximal tubular injury, renal gene expression of extracellular glutathione peroxidase, GPX-3 (Yazar et al., 2003) was also assessed in paraffin fixed sections by in situ hybridization
# [3] = tested on: Escherichia coli (ATCC 25922); assay: Bactericidal studies: MIC of gentamicin in presence and absence of aminoguanidine; format: cell-based
# Procedure: A standardised E coli (ATCC 25922) was then inoculated into the broth and the lowest concentration of gentamicin to inhibit the growth of the bacterium determined (MIC). Results are expressed in milligrams of gentamicin per litre. Studies were performed in duplicate on two separate occasions by a blinded operator. A clinically significant change was defined as an increase in the MIC by two or more doubling dilutions.
# [4] = tested on: Male Sprague-Dawley rats; details: serum, after treatment
# Procedure: Consequently, serum ACE activity was estimated in animals before and after administration of gentamicin using the synthetic ACE-specific substrate, hippuryl-histidyl-leucine (Shihabi and Scaro, 1981). The released product (His-Leu) was fluorimetrically measured after reaction with ophthaldehyde in time-fixed assays. Briefly, 20 μl of 10 times diluted plasma was mixed with 20 μl Hip-His-Leu (final conc.=1 mM) made up to 50 μl with 10 μL of 100 mM Tris-HCl, 300 mM NaCl, pH 8.3. The samples were then mixed and incubated in 37° C. water bath for 30 minutes. To detect the generated His-Leu, 120 μl of 0.3 N NaOH and 10 μl o-phthaldehyde were then added and the samples briefly vortexed and incubated at room temperature for 10 minutes. To terminate the derivitisation reaction, 20 μl of 3N HCl was added and the samples centrifuged for 5 minutes at 15, 000 rpm to remove insoluble residue. The resulting supernatant was transferred to a black 96 well plate and fluorescence read at excitation=355 nm, emission=485 nm in a fmax fluorescence detector (Molecular Biosystems, USA). Results were corrected for blank fluorescence detected in the absence of Hip-His-Leu. Results are expressed as nmol of His-Leu generated per minute of reaction time per ml of plasma (nmol/min/ml).
# [5] = tested on: Male Sprague-Dawley rats; assay: Oxidation, lipoxidation and glycation products (AOPP, MDA-linked fluorescence, AGE fluorescence, LMW-AGEs, CML staining)
# Procedure: Serum and tissue advanced oxidation products (AOPP) were measured by spectrophotometric methods (Martin-Gallan et al., 2003). This assay largely detects the presence of protein dityrosine modifications (Witko-Sarsat et al., 2003). Briefly, 200 μl of homogenised renal tissue or serum was diluted 1:3 in PBS, 100 μL of 1.16 mol/L potassium iodide (KI, Sigma) were then added to each tube, followed two minutes later by 200 μL of concentrated acetic acid. […] Concentrations of AOPP were expressed as arbitrary units calibrated to a chloramine T standard.
# Tissue-linked glycoxidation products were measured, based on tissue fluorescence using a flow injection assay (Wrobel et al., 1998). Briefly, renal tissue was enymatically hydrolysed using proteinase K. The solution was then centrifuged to remove sediment and the aqueous phase injected directly into a water column flowing through a fluorescence detector (Waters 470, Waters USA) and UV detector (Hewlett-Packard, USA) in series. Pentosidine-linked fluorescence was measured at excitation 325 nm with an emission at 385 nm (Meng et al., 2000). The level of lipid peroxidation was estimated by determining the malondialdehyde (MDA)-linked fluorescence (390 nm/emission 460 nm) (Meng et al., 1998). The values of fluorescence were corrected against those of the blanks containing the same concentration of proteinase K and adjusted for the peptide content using the absorbance at 280 nm. The data were expressed in arbitrary units, with […] being given the reference value of 1. Finally, paraffin sections were stained for CML-AGEs
# [6] = tested on: Male Sprague-Dawley rats; assay: Gentamicin nephrotoxicity model: serum and urine biochemistry, renal function, kidney weight after 8 days of treatment
# Procedure: Group 1 (Gentamicin): These animals received timed daily subcutaneous injections of gentamicin (50 mg/kg/d) in divided doses, delivered during the resting period, for 8 consecutive days.
# Group 3 (Sham): These animals received twice daily subcutaneous injections of equivalent amount of vehicle (0.9% NaCl) according to the same timed protocol for 8 consecutive days.
# Kidneys were harvested and blood collections were performed. […] One kidney was immediately removed for histological examination.
# (Roche Diagnostics, Basel, Switzerland). […] Gentamicin standards were prepared in normal rat sera.
# Serum and urine creatinine were measured by HPLC.
# [7] = tested on: Male Sprague-Dawley rats; assay: Urinary nitrate/nitrite (NOx) excretion by Griess reaction; format: in vivo, rat; details: per mg creatinine, after treatment
# Procedure: As a marker of renal NO generation, daily excretion of urinary nitrate/nitrite (NOx) was measured using the Griess reaction (Komers et al., 1994; Miranda et al., 2001). Briefly, 0.5 ml of urine was centrifuged at 10,000 g for 15 minutes, the supernatant removed and diluted fivefold using deionised water. From each sample 50 μl was dispensed into a 96-well plate followed by 50 μl of freshly prepared vanadium chloride solution (0.8 mg/ml in 1M HCl) and immediately followed by 50 μl of Griess reagent (2% sulphanilamide in 1.47M hydrochloric acid) and 0.1% N-(1-aphthyl)ethylenediamine dihydrochloride in deionised water. […] Each sample was assayed in triplicate. Urinary NOx excretion was expressed as μmol/mg creatinine.
# [8] = tested on: Male Sprague-Dawley rats; assay: Serum and urine parameters after aminoguanidine pre-treatment but before gentamicin therapy; details: p<0.05
# Procedure: Male Sprague-Dawley rats were randomly assigned to one of three groups:
# Group 2 (Gentamicin+aminoguanidine): rats received aminoguanidine 4 g/L in their drinking water for 2 weeks, prior to gentamicin dosing as described above.
# Prior to gentamicin dosing and on day 7 of the study, animals were placed individually in metabolic cages and 24 h urine collected and food intake recorded. Blood was collected into heparinised tubes, after being obtained from the tail of each rat, at baseline and on days 2 and 5. The blood samples were always obtained before the daily injections were given, as well as being taken 24 hours following the last injection and at the time of sacrifice. […]
# Standard physiological and biochemical parameters including body weight and food and water intake, were measured before and after gentamicin dosing regimens. […] Serum gentamicin was measured in serum by a polarisation fluorescence immunoassay in a TDx analyser (Abbott Diagnostics, Abbott Park, Ill., USA). […] To quantify enzymuria, urinary excretion of alanine transaminase (ALT), aspartate transferase (AST), alkaline phosphatase (AP) and lactate dehydrogenase (LDH) were measured using a Hitachi 747 Automatic Analyser, as above. […] Therefore the urinary excretion of the electrolytes were measured in this experimental protocol and expressed as the fractional excretion (FE), which is calculated as: FEx(%)=(Ux×PCr)/(Px×UCr) […]
# [9] = Serum and renal cortical gentamicin levels; format: in vivo, rat
# Procedure: (Roche Diagnostics, Basel, Switzerland). […] Gentamicin standards were prepared in normal rat sera. […] To measure the gentamicin concentrations in the renal cortex, the kidney was processed and analysed. The upper pole of the vertically divided right kidney was removed and snap-frozen at minus 80° C. until use. […] After centrifugation, a 100 μl aliquot of the supernatant was used immediately for gentamicin determination by HPLC. […] Fluorescence detection was set at excitation 340 nm, emission 418 nm. The […] gentamicin peak was used to quantify the total gentamicin content. Calibration curves of the components were prepared in a drugfree supernatant of the renal homogenates and were linear over the concentration range 50-500 μg/ml. […] Renal cortical gentamicin concentrations were expressed per milligram of renal cortical protein.
# [10] = cited from earlier work
# [11] = following 8-days of treatment, Mean ± SEM
# [12] = serum, following 8-days of treatment, Mean ± SEM
smiles,measurement,setting,value
"CNC(C)C1CCC(N)C(OC2C(N)CC(N)C(OC3OCC(C)(O)C(NC)C3O)C2O)O1 (stereo not drawn) [Gentamicin, gentamicin]",Patients showing signs of nephrotoxicity,[1],up to 50%
same,Tubular necrosis (PAS histology of renal cortex),"[2]; FIG. 3, after 8 days of treatment",extensive and marked tubular necrosis
same,Tubular expression of glutathione peroxidase-3,"[2]; FIG. 4, in situ hybridization, aminoguanidine group also received gentamicin",significantly reduced
same,Fragmented and condensed nuclei (apoptotic cells) per field,"[2]; tubular nuclei, propidium iodide, aminoguanidine group also received gentamicin",12±2 per field
same,MIC for gentamicin,[3]; in the absence of aminoguanidine,0.2 µg/mL
same,MIC for gentamicin,[3]; in the presence of aminoguanidine at 10 μg/ml,0.3 µg/mL
same,MIC for gentamicin,[3]; in the presence of aminoguanidine at 100 μg/ml,0.2 µg/mL
same,MIC for gentamicin,[3]; in the presence of aminoguanidine at 1 mg/ml,0.5 µg/mL
same,ACE activity,[4],5.1 ± 0.4 nmol/mL/min
same,Staining for CML-AGE in kidney,"[5]; FIG. 7, aminoguanidine group also received gentamicin",substantially increased
same,Serum AOPPs,[5]; FIG. 8,elevated to approximately the same extent
same,Serum MDA-linked fluorescence,"[5]; FIG. 8, compared to sham animals or those receiving aminoguanidine",elevated
same,Circulating levels of LMW-AGEs,"[5]; after 8 days, aminoguanidine group also received gentamicin",elevated to over twice the level seen in untreated animals
same,Cortical AGE-fluorescence,"[5]; arbitrary units, untreated 1.0±0.3, p=NS",1.2±0.3
same,Normalised kidney weight,"[6]; FIG. 2, aminoguanidine group also received gentamicin",significantly higher
same,Renal blood flow as estimated by the clearance of endogenous hippurate,"[6]; after 8 days gentamicin, aminoguanidine group also received gentamicin",8.1 ± 1.1 mL/min
same,Urine Volume,"[6]; following 8-days of treatment, gentamicin 50 mg/kg/d s.c., Mean ± SEM",29 ± 6 mL/day
same,FeCa,[6]; [11],6 ± 3%
same,FeK,[6]; [11],70 ± 20 %
same,FeMg,[6]; [11],21 ± 5 %
same,Urine ALT,[6]; [11],10.5 ± 4.6 U/ml
same,Urine AP,[6]; [11],119 ± 29 U/ml
same,Urine AST,[6]; [11],147 ± 62 U/ml
same,Urine LDH,[6]; [11],489 ± 100 U/ml
same,Creatinine clearance,"[6]; following 8-days of treatment, Mean ± SEM, none in table head",1.3 ± 0.3 mL/min
same,Fall in creatinine clearance compared to untreated animals,"[6]; gentamicin alone, 8 days",greater than 50%
same,Serum LDH,"[6]; marker of renal injury, after treatment",380 ± 76 IU/ml
same,Creatinine,[6]; [12],122 ± 55 µM
same,Urea,[6]; [12],20.1 ± 5.6 mM
same,Urine NOx,[7],4.1 ± 0.4 µmol/mg
N=C(N)NN [aminoguanidine],Fragmented and condensed nuclei (apoptotic cells) per field,"[2]; rat, in vivo",1-2 per field
same,Tubular expression of glutathione peroxidase-3,"[2]; rat, in vivo",not significantly changed
same,Urinary potassium excretion,[8],reduced
same,Reduction of gentamicin content of the renal cortex,"[9]; FIG. 5, after 8 days, aminoguanidine co-administered with gentamicin, vs gentamicin alone, p<0.001",approximately two thirds
same,Serum gentamicin levels at day 2 and day 5,[9]; effect of co-administration of aminoguanidine,unaffected
same,Staining for CML-AGE in kidney,"[5]; rat, in vivo",able to reduce staining for CML-AGE
same,Half life,[10],4 h
same,Normalised kidney weight,"[6]; rat, in vivo",reduced the renal weight
same,Renal blood flow as estimated by the clearance of endogenous hippurate,"[6]; rat, in vivo",12.1 ± 1.1 mL/min
